In assay [1] the target is T1, tau (Homo sapiens, UniProt P10636). Briefly: Tau biosensor dose titrations (HEK293T tau biosensor cells seeded with AD brain homogenate).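 For all read-outs here: AD brain homogenate preincubated 16 h with compound, then transfected into tau biosensor cells, seeding read as tau puncta counted by imaging, normalized to cell confluence.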 The format is cell-based. As to conditions: for effect on seeding at 10 μM: 10 μM final concentration on cells; for effect on seeding at 10 μM / effect on seeding at 50 μM: AD brain homogenate seed; for effect on seeding, concentrations ranging from 10 to 100 μM: AD brain homogenate seed (Fig. 2A); for dose-dependent effect of NT on tau seeding: AD brain homogenate pretreated with indicated amounts of NT (Fig. 3A); for effect on seeding, extended dose series: NT concentrations tested from 25 nM to 100 µM (fig. S6); for effect on seeding at 50 μM: 50 μM final concentration on cells.

The target of assay [2] is T1, tau. Briefly: MCE Phenols Library screening, tau biosensor cell seeding assay (AvZ). The format is cell-based. Particulars: for AvZ (average z score of seeding, SDs from the mean level of seeding): 10 μM phenol in cell cultures, AD brain homogenate preincubated 16 hours, two biological replicates, positive = catalyzes seeding, negative = inhibits; for Z repl 1 / Z Repl 2: Z score; for Z repl 1 / raw data 1: replicate 1; for Z Repl 2 / raw data 2: replicate 2; for raw data 1 / raw data 2: puncta.
Target sequence in this assay (P10636 623-695 limits assumed): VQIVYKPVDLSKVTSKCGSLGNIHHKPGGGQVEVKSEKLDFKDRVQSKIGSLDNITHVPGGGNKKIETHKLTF

In assay [3] the target is T2, P301S 4R1N tau fused with YFP (Homo sapiens, UniProt P10636, P618S). The experiment in a line: cell-based.
T2 sequence (P10636 1-412 isoform P10636-7 P272S): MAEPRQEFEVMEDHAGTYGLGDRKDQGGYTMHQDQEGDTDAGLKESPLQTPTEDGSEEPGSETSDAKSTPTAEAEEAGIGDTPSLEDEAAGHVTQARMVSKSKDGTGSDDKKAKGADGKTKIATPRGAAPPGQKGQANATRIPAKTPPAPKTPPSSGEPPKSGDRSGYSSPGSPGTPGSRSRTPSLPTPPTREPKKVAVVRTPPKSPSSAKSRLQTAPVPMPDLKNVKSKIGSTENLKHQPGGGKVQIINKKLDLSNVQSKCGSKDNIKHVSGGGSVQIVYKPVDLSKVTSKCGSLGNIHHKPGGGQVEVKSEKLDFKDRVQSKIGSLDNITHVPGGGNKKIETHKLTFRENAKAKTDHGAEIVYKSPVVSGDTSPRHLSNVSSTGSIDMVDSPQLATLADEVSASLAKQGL
The target in assay [4] is tau fibrils purified from AD brain (Homo sapiens, UniProt P10636). The experiment in a line: Quantitative electron microscopy (qEM) of fibril disaggregation. Format: biochemical. As to conditions: 75 μM; for effect on tau fibril load (qEM): 24-hour treatment, vs no inhibitor control; for reduction of tau fibril counts: preincubated 24 hours, N = 96 images.
Chain of tau fibrils purified from AD brain (P10636 623-695 limits assumed): as the sequence (P10636 623-695 limits assumed) above
Another assay deals with VMAT2. As to conditions: cited from earlier work.
Assay [5] concerns the target T2, P301S 4R1N tau fused with YFP.
The subject of assay [6] is intracellular DA concentrations. As to conditions: cited from earlier work.
[7] abbreviates: average puncta of the two replicates.
The mark [8] stands for this setting: AD brain homogenate diluted to […] ptau, read-out: IC50 low tau load.
Where [9] appears, read: average Z score of the two replicates, tau seeding.
[10] abbreviates: average Z score of two replicates, Phenols Library screen.
The mark [11] stands for this setting: average Z score of the two replicates, MCE Phenols Library screen.

Entries after “also recorded” stand apart in the source; their conditions may differ. Where two headings read alike, the source gives them in different places.

In the case of `NC(Cc1ccc(O)c(O)c1)C(=O)O` (racemic) [DL-DOPA], the “effect on seeding at 10 μM” value on tau [1] is recorded as “seeding catalyst; also recorded: catalyzed”. The “effect on seeding, concentrations ranging from 10 to 100 μM” value on tau [1] is recorded as “dose-dependent inhibitor at higher concentrations”. The “AvZ (average z score of seeding, SDs from the mean level of seeding)” value (“AvZ” below) is recorded as 1.763 on tau [2] and 1.76 at tau [2] (listed as DL-dopa).

For `NC(Cc1cccc(O)c1)C(=O)O` (racemic) [DL-m-Tyrosine], the “effect on seeding, concentrations ranging from 10 to 100 μM” value at tau [1] was “catalyzed seeding independently of dose at all concentrations tested”. Moreover, on tau [2], the “AvZ” value stood at 1.911; the “Z repl 1” value is given as 1.84; the “Z Repl 2” value is on record as 1.982; the “raw data 1” value is on record as 48433.9. At tau [2], the “raw data 2” value turned out to be 33932.7. The compound also registered an av puncta at tau [2] (average of raw data 1 and 2) of 41183.3.

Take `O=C(O)Cc1c[nH]c2ccc(O)cc12` [5-Hydroxyindole-3-acetic acid]: the “dose-dependent effect of NT on tau seeding” value (“dose-dependent effect of NT” for short) at tau [1] is listed as “inhibited tau seeding at levels comparable to EP”. In addition, at tau [2], the “AvZ” value was -0.466; the “Z repl 1” value is -0.16; the “Z Repl 2” value is on record as -0.771; the “raw data 1” value worked out at 24430.2. Moreover, the “raw data 2” value at tau [2] was 4529.6. Moreover, the av puncta on tau [2] (setting [7]) came to 14479.9.

A word on the IC50: it is the concentration that inhibits the measured activity by half. On to `N[C@H](Cc1ccc(O)c(O)c1)C(=O)O` [D-dopa], for which the half-maximal inhibitory concentration (IC50) on tau [1] (setting [8]) was 1.9 µM.

On to `NCCc1ccc(O)c(O)c1` [DA, dopamine, reference compound], for which the 50% inhibitory concentration (IC50) in assay [3] was 16.6 µM; at tau [1] (setting [8]), 3.6 µM; on tau [1] (AD brain homogenate with ptau […], read-out: IC50 high tau load), 9.8 µM. In addition, the “effect on tau fibril load (qEM)” value in assay [4] is listed as “significantly reduce AD tau fibrils”. Also, in assay [4], the “reduction of tau fibril counts” value is “about 50%”. In addition, the “effect on seeding at 10 μM” value on tau [1] was “inhibited”. In addition, the “dose-dependent effect of NT” value at tau [1] was “potently and dose-dependently inhibited tau seeding”. Further, the “affinity for VMAT2 relative to 5-HT” value in the assay with VMAT2 is “comparable or slightly lower affinity for VMAT2 than 5-HT”. The “effect of lower doses on seeding in dopaminergic neurons” value in assay [5] (around 1 μM, high tau load) is “catalytic effect on seeding”. Moreover, the “effect on seeding in dopaminergic neurons at 50 μM” value in assay [5] (final concentration 50 μM on cells) is “inhibited seeding”.

In the case of `O=C(O)Cc1ccc(O)c(O)c1` [DOPAC, 3,4-dihydroxyphenylacetic acid], the “dose-dependent effect of NT” value at tau [1] is reported as “inhibited seeding with effects similar to DA”.

Take `CNC[C@H](O)c1ccc(O)c(O)c1` [EP, epinephrine, reference compound]: the “dose-dependent effect of NT” value on tau [1] is “inhibited seeding with the next greatest efficacy”.

On to `NCCCC(=O)O` [GABA, γ-aminobutyric acid], for which, on tau [1], the “dose-dependent effect of NT” value is recorded as “no significant inhibitory effects on tau seeding” and the “effect on seeding, extended dose series” value is listed as “No inhibitory effect”.

Regarding `CC(C)=CCc1c(O)cc2oc3cc(O)c(O)c(CCC(C)(C)O)c3c(=O)c2c1O` [Garcinone C], at tau [1], the “effect on seeding at 10 μM” value was “catalyzed seeding” and the “effect on seeding at 50 μM” value is reported as “inhibited seeding”. Moreover, the “AvZ” value at tau [2] was determined as 3.115.

For the compound `COc1cc(CC(=O)O)ccc1O` [Homovanillic acid], the “effect on tau fibril load (qEM)” value in assay [4] (listed as HVA) was “significant reduction in fibrils, though to a lesser extent”. Also, at tau [2], the “AvZ” value is on record as -0.054; the “Z repl 1” value is recorded as -0.336; the “Z Repl 2” value worked out at 0.228; the “raw data 1” value came to 22315.8. Moreover, on tau [2], the “raw data 2” value worked out at 15201.8. The “AvZ” value on tau [2] (listed as HVA) is given as −0.054. The av puncta at tau [2] (average of raw data 1 and 2) is reported as 18758.8.

As for `N[C@@H](Cc1ccc(O)c(O)c1)C(=O)O` [L-dopa], in assay [4], the “effect on tau fibril load (qEM)” value was “significantly reduce AD tau fibrils” and the “reduction of tau fibril counts” value was approximately 75%. In addition, the half-inhibitory concentration (IC50) on tau [1] (setting [8]) was 1.9 µM. In assay [6], the “increase of intracellular DA concentrations” value is approximately 10 fold and the “intracellular DA concentration in neurons treated with levodopa” value is on record as “up to 17 μM”.

`NC[C@H](O)c1ccc(O)c(O)c1` [NE, norepinephrine, reference compound]: the IC50 at tau [1] (AD brain homogenate diluted to 0.11 ng/μl ptau, read-out: IC50 low tau load) was more than 25 µM.

Regarding `CC(=O)OCC[N+](C)(C)C` [acetylcholine], at tau [1], the “dose-dependent effect of NT” value was “no significant inhibitory effects on tau seeding” and the “effect on seeding, extended dose series” value is “No inhibitory effect”.

`Nc1ncnc2c1ncn2[C@@H]1O[C@H](CO)[C@@H](O)[C@H]1O` [adenosine, reference compound]: the “dose-dependent effect of NT” value on tau [1] is “no significant inhibitory effects on tau seeding; also recorded: dose-dependently catalyzed tau seeding”.

For the compound `COc1c(O)cc2oc3cc(O)c(CC=C(C)C)c(O)c3c(=O)c2c1CCC(C)(C)O` [garcinone D], on tau [1], the “effect on seeding at 10 μM” value was “catalyzed seeding” and the “effect on seeding at 50 μM” value was “inhibited seeding”. Further, the “av Z” value on tau [2] (setting [9]) was 0.598.

For the compound `N[C@@H](CCC(=O)O)C(=O)O` [glutamate], at tau [1], the “dose-dependent effect of NT” value is listed as “no significant inhibitory effects on tau seeding” and the “effect on seeding, extended dose series” value was “No inhibitory effect”.

Turning to `COc1ccc(-c2cc(=O)c3c(O)cc(O)c(-c4cc(-c5cc(=O)c6c(O)cc(OC)cc6o5)ccc4OC)c3o2)cc1` [sciadopitysin], at tau [1], the “effect on seeding at 10 μM” value is “catalyzed seeding” and the “effect on seeding at 50 μM” value is “inhibited seeding”. For the same compound, on tau [2], the “Z repl 1” value was determined as 0.092, the “Z Repl 2” value worked out at 0.543, the “raw data 1” value was 27448.5 and the “raw data 2” value is reported as 18561.5. Moreover, the “av Z” value at tau [2] (setting [9]) turned out to be 0.317. This compound yielded an av puncta on tau [2] (average of raw data 1 and 2) of 23005.

A word on the Kd: it is the free concentration of one partner at which half of the binding sites on the other are occupied at equilibrium, for simple one-to-one binding. For the compound `NCCc1c[nH]c2ccc(O)cc12` [serotonin, 5-hydroxytryptamine], the “dose-dependent effect of NT” value on tau [1] is “no significant inhibitory effects on tau seeding”. The Kd on VMAT2 (read-out: dissociation constant (Kd) for VMAT2) is 3.3 µM.

On to Liquiritin apioside, for which, on tau [2], the “Z repl 1” value stood at 0.133, the “Z Repl 2” value was -0.022, the “raw data 1” value was determined as 27949.8 and the “raw data 2” value was found to be 12528.3. Further, on tau [2] (setting [10]), the “av Z” value amounted to 0.056. The av puncta at tau [2] (average of raw data 1 and 2) was 20239.1.

Turning to Medicarpin, at tau [2], the “Z repl 1” value was -0.987, the “Z Repl 2” value is on record as -0.112, the “raw data 1” value came to 14494.9 and the “raw data 2” value is given as 11569.9. Further, the “av Z” value at tau [2] (setting [11]) was -0.55. This compound came in with an av puncta on tau [2] (setting [7]) of 13032.4.

For Myricitrin, at tau [2], the “Z repl 1” value is on record as -0.619, the “Z Repl 2” value was -1.178, the “raw data 1” value was determined as 18913 and the “raw data 2” value worked out at 187.899. At tau [2] (setting [11]), the “av Z” value is given as -0.899. This compound had an av puncta at tau [2] (average of raw data 1 and 2) of 9550.45.

With Neosmitilbin, on tau [2], the “Z repl 1” value was determined as 0.198, the “Z Repl 2” value is -0.157, the “raw data 1” value worked out at 28721.6 and the “raw data 2” value is listed as 11093.4. Besides, the “av Z” value on tau [2] (setting [10]) was determined as 0.021. The compound also came in with an av puncta on tau [2] (average of raw data 1 and 2) of 19907.5.

As for Punicalagin, on tau [2], the “Z repl 1” value is on record as -2.185, the “Z Repl 2” value is recorded as -1.19, the “raw data 1” value is on record as 119.783 and the “raw data 2” value is 55.562. Moreover, the “av Z” value at tau [2] (setting [11]) was -1.687. At tau [2] (average of raw data 1 and 2), this compound gave an av puncta of 87.672.

Turning to Punicalin, at tau [2], the “Z repl 1” value is -2.134, the “Z Repl 2” value is reported as -1.192, the “raw data 1” value came out at 725.667 and the “raw data 2” value was determined as 34.42. The “av Z” value at tau [2] (setting [11]) is on record as -1.663. The av puncta on tau [2] (average of raw data 1 and 2) stood at 380.043.

Rhodiosin: at tau [2], the “Z repl 1” value was -1.331, the “Z Repl 2” value is -1.146, the “raw data 1” value is listed as 10373.6 and the “raw data 2” value is listed as 522.423. In addition, the “av Z” value on tau [2] (setting [11]) is -1.239. For the same compound, the av puncta at tau [2] (average of raw data 1 and 2) is recorded as 5448.02.

On tau [2] (average of raw data 1 and 2), Theaflavin 3,3'-digallate displayed an av puncta of 323.309. For the same compound, on tau [2], the “raw data 1” value is on record as 392.747 and the “raw data 2” value is 253.87.

With Thymopentin [reference compound], on tau [2], the “AvZ” value is listed as -0.682; the “Z repl 1” value is recorded as -1.145; the “Z Repl 2” value is reported as -0.22; the “raw data 1” value is on record as 12607.7. Also, the “raw data 2” value at tau [2] was 10414. Moreover, at tau [2] (setting [7]), the av puncta turned out to be 11510.9.

Turning to Tubuloside A, on tau [2], the “Z repl 1” value is 0.218, the “Z Repl 2” value is reported as 0.274, the “raw data 1” value is 28967.6 and the “raw data 2” value amounted to 15687.1. For the same compound, the av puncta on tau [2] (average of raw data 1 and 2) was found to be 22327.4.

These data come from publication PMC11784839, “Monoaminergic neurotransmitters are bimodal effectors of tau aggregation” (Science Advances, 2025).
